Read-outs that look alike come from different tables or passages of the source. Positions of bridges follow the written chain, without caps; N, C: chain ends. Residues, ends and D or L forms follow the SMILES beside them.
What was measured:
Experiment in all cases: cell-based
hNav1.7 [1] = target: T1, hNav1.7 (Homo sapiens, UniProt Q15858); assay type: cell-based
hNav1.5 [2] = target: T2, hNav1.5 (Homo sapiens, UniProt Q14524)
hNav1.7 [3] = target: T1, hNav1.7; conditions: Nav1.7 Use IC50
hNav1.5 [4] = target: T2, hNav1.5; remark: listed apart in the source
hNav1.3 = hNav1.3 (Homo sapiens, UniProt Q9NY46); conditions: IonWorks Quattro, read-out: IWQ Use Nav1.3
[5] = clamped to −110 mV, depolarized to −10 mV, 5 min after compound, n=2

T2 sequence (Q14524 whole entry, looked up): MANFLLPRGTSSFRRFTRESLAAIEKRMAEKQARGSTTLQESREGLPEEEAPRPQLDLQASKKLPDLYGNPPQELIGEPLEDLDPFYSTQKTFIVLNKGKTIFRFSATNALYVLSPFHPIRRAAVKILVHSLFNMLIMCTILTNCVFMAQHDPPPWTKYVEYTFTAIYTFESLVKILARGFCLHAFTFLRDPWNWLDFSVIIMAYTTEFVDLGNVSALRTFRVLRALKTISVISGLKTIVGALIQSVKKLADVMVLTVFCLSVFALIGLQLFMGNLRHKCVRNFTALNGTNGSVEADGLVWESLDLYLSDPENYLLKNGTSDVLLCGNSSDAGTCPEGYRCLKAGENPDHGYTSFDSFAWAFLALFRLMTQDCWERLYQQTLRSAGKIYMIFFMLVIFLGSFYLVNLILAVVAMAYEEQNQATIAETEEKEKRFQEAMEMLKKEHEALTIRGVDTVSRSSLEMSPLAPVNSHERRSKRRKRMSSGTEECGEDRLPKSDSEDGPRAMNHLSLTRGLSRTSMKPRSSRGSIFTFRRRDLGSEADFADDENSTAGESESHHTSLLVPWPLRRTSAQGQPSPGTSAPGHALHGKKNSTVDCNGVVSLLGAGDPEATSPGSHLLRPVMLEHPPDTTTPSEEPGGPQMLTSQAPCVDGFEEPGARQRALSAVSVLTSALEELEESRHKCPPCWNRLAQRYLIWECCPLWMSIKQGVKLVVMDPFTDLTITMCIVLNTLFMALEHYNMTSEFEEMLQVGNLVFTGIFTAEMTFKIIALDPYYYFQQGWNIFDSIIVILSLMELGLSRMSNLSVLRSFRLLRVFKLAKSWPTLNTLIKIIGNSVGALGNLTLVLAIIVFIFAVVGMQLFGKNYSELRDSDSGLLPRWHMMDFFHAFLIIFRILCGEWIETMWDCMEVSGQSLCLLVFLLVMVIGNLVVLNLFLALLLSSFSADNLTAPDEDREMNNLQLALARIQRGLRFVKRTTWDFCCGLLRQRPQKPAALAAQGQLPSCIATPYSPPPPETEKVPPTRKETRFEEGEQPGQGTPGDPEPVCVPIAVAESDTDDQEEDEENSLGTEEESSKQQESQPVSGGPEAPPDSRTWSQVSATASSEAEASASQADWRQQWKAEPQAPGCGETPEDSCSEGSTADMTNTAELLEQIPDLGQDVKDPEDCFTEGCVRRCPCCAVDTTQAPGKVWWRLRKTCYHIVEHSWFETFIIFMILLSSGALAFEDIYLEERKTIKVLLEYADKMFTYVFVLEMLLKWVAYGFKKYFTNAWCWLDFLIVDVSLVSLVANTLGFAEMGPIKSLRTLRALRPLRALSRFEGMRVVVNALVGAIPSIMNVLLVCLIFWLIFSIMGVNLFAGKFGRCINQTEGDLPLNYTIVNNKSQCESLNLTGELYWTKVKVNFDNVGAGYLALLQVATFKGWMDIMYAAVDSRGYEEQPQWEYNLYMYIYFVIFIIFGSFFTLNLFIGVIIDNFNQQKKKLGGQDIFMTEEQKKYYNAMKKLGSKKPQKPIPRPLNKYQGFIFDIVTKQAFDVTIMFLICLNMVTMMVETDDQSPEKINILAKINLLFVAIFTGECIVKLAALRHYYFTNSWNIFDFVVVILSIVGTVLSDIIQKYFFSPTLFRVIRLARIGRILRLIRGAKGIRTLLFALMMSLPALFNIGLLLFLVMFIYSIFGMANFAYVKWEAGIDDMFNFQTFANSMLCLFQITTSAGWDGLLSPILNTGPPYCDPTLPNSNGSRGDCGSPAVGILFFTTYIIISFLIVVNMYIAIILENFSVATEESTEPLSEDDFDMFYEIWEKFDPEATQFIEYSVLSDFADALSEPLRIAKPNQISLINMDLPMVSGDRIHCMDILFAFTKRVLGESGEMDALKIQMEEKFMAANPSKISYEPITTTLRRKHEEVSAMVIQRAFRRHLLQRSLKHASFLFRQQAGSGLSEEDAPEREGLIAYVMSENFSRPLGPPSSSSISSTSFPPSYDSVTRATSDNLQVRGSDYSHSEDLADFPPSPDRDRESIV
T1 sequence (Q15858 whole entry, looked up): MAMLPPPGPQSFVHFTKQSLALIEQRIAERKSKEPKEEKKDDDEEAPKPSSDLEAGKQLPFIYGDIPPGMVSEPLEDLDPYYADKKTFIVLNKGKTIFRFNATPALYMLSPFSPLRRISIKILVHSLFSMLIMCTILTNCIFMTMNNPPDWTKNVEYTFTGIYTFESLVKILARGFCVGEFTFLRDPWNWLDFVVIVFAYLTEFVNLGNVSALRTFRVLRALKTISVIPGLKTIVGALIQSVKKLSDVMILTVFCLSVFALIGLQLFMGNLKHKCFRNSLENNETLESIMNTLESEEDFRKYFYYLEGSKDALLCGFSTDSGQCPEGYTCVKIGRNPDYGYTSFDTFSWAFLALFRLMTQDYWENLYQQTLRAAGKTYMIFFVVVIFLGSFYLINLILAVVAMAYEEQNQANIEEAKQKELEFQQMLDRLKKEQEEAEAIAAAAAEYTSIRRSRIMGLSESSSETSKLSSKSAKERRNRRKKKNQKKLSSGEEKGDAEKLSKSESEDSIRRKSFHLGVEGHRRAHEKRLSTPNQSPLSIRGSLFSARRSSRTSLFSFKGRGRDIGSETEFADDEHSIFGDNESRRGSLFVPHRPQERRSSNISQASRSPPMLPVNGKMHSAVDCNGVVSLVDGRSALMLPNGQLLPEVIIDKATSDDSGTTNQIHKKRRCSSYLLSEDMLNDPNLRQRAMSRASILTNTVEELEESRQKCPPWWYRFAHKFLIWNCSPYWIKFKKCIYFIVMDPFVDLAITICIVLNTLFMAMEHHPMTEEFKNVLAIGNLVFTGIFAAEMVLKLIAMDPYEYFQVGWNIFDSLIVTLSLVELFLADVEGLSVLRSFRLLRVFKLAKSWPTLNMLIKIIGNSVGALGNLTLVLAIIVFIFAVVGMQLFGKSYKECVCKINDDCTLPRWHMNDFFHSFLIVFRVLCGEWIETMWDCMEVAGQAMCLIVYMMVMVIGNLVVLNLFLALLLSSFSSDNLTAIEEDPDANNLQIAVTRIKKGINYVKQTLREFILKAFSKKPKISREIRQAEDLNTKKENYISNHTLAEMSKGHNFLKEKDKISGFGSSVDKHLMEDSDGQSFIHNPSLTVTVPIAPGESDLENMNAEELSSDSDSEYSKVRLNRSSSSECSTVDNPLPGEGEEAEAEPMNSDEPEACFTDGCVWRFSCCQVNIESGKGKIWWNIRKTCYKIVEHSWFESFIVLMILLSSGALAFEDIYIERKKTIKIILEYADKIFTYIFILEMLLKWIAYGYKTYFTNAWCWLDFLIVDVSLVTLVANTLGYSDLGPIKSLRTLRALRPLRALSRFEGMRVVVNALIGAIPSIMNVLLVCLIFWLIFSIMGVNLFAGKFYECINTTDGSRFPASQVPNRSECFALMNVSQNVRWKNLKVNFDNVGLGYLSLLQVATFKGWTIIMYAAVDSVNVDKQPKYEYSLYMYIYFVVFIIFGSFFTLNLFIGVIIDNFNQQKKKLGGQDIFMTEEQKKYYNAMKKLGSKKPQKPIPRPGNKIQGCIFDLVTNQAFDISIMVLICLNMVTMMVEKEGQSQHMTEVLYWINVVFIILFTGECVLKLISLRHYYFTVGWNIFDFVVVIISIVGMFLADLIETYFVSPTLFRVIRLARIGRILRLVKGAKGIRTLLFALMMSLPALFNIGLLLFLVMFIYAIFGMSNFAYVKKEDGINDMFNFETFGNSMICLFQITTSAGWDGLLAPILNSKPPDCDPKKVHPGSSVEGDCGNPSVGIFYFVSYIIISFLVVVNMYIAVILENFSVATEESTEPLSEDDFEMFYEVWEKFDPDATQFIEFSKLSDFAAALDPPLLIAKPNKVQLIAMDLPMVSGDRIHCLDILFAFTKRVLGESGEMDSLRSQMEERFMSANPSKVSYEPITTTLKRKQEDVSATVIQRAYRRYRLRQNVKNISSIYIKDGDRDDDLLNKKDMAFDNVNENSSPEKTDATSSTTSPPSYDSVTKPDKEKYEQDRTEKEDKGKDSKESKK

SMILES | IC50 (hNav1.7 [1]) [nM] | IC50 (hNav1.5 [2]) [nM] | IC50 (hNav1.7 [3]) [nM] | IC50 (hNav1.5 [4]; IWQ Use Nav1.5) [nM] | IC50 (hNav1.3; [5]) [nM] | IC50 (hNav1.7 [1]; IonWorks Quattro, clamped to −110 mV, depolarized to −10 mV, 5 min after compound, n=2, read-out: IWQ Use Nav1.7) [nM] | IC50 (hNav1.5 [4]; IonWorks Quattro, clamped to −110 mV, depolarized to −10 mV, 5 min after compound, n=2, read-out: IWQ Use Nav1.5) [nM] | IC50 (hNav1.5 [4]; IonWorks Quattro, use-dependent block, hNav1.5, read-out: IWQ Use Nav1.5) [nM] | IC50 (hNav1.3; use-dependent block, hNav1.3) [nM]
CC[C@H](C)[C@@H]1NC(=O)[C@@H]2CSSC[C@@H]3NC(=O)[C@H](C(C)C)NC(=O)[C@H](CC(C)C)NC(=O)[C@H](CC(N)=O)NC(=O)[C@@H]4CCCN4C(=O)[C@H](CCCNC(=N)N)NC(=O)[C@H](CSSC[C@H](NC(=O)[C@@H](N)CC(=O)O)C(=O)N[C@@H](CC(C)C)C(=O)NCC(=O)N[C@@H](Cc4ccccc4)C(=O)N[C@@H](Cc4ccc(O)cc4)C(=O)N[C@@H](CCCNC(=N)N)C(=O)N[C@@H](CCCCN)C(=O)N2)NC(=O)[C@H](CSSC[C@@H](C(=O)N[C@@H](CCCCN)C(=O)N[C@@H](Cc2ccc(O)cc2)C(=O)N[C@H](C(=O)N[C@@H](Cc2ccccc2)C(N)=O)C(C)C)NC(=O)[C@H](Cc2c[nH]c4ccccc24)NC(=O)[C@H](CCCCN)NC(=O)[C@H](Cc2cnc[nH]2)NC(=O)[C@H]([C@@H](C)O)NC(=O)[C@H](CCCNC(=N)N)NC(=O)[C@H](CO)NC3=O)NC(=O)[C@H](CCCCN)NC(=O)[C@H](CC(=O)O)NC(=O)[C@H](CC(N)=O)NC(=O)[C@H](CC(=O)O)NC(=O)[C@@H]2CCCN2C1=O [SEQ ID NO: 286] (H-DCLGFYRKCIPDNDKCCRPNLVCSRTHKWCKYVF-NH2; disulfide 2-17, 9-23, 16-30) | 970 | 10000 | 69 | 6380 | 520 | – | – | – | –
CC[C@H](C)[C@@H]1NC(=O)[C@@H]2CSSC[C@@H]3NC(=O)[C@H](C(C)C)NC(=O)[C@H](CC(C)C)NC(=O)[C@H](CC(N)=O)NC(=O)[C@@H]4CCCN4C(=O)[C@H](CCCNC(=N)N)NC(=O)[C@H](CSSC[C@H](NC(=O)[C@@H](N)CC(=O)O)C(=O)N[C@@H](CC(C)C)C(=O)NCC(=O)N[C@@H](Cc4ccccc4)C(=O)N[C@@H](Cc4ccccn4)C(=O)N[C@@H](CCCNC(=N)N)C(=O)N[C@@H](CCCCN)C(=O)N2)NC(=O)[C@H](CSSC[C@@H](C(=O)N[C@@H](CCCCN)C(=O)N[C@@H](Cc2ccc(O)cc2)C(=O)N[C@H](C(=O)N[C@@H](Cc2ccccc2)C(N)=O)C(C)C)NC(=O)[C@H](Cc2c[nH]c4ccccc24)NC(=O)[C@H](CCCCN)NC(=O)[C@H](Cc2c[nH]cn2)NC(=O)[C@H]([C@@H](C)O)NC(=O)[C@H](CCCNC(=N)N)NC(=O)[C@H](CO)NC3=O)NC(=O)[C@H](CCCCN)NC(=O)[C@H](CC(=O)O)NC(=O)[C@H](CC(N)=O)NC(=O)[C@H](CC(=O)O)NC(=O)[C@@H]2CCCN2C1=O [SEQ ID NO: 294] | – | 10000 | 42 | – | 90 | 370 | 9110 | – | –
CC[C@H](C)[C@@H]1NC(=O)[C@@H]2CSSC[C@@H]3NC(=O)[C@H](C(C)C)NC(=O)[C@H](CC(C)C)NC(=O)[C@H](CC(N)=O)NC(=O)[C@@H]4CCCN4C(=O)[C@H](CCCNC(=N)N)NC(=O)[C@H](CSSC[C@H](NC(=O)[C@@H](N)CC(=O)O)C(=O)N[C@@H](CC(C)C)C(=O)NCC(=O)N[C@@H](Cc4ccccc4)C(=O)N[C@@H](CCSC)C(=O)N[C@@H](CCC(=O)O)C(=O)N[C@@H](CCCCN)C(=O)N2)NC(=O)[C@H](CSSC[C@@H](C(=O)N[C@@H](CCCCN)C(=O)N[C@@H](Cc2ccc(O)cc2)C(=O)N[C@H](C(=O)N[C@@H](Cc2ccccc2)C(N)=O)C(C)C)NC(=O)[C@H](Cc2c[nH]c4ccccc24)NC(=O)[C@H](CCCCN)NC(=O)[C@H](Cc2cnc[nH]2)NC(=O)[C@H]([C@@H](C)O)NC(=O)[C@H](CCCNC(=N)N)NC(=O)[C@H](CO)NC3=O)NC(=O)[C@H](CCCCN)NC(=O)[C@H](CC(=O)O)NC(=O)[C@H](CC(N)=O)NC(=O)[C@H](CC(=O)O)NC(=O)[C@@H]2CCCN2C1=O [[Glu7]GpTx-1(1-34)] (H-DCLGFMEKCIPDNDKCCRPNLVCSRTHKWCKYVF-NH2; disulfide 2-17, 9-23, 16-30) | 880 | > 10000 | 98 | – | – | – | – | 19100 | 1680
